Results from ChEMBL document CHEMBL1201862, “PubChem BioAssay data set” (2004).
Activity calls are given as the source filed them.

Assays:
[1] = half-maximal inhibitory concentration for glucagon-like peptide-1 release, STC-1 cell line, dose-response (AID 1117345); assay type: functional, cell-based
[2] = Glucagon-like peptide 1 release potency, NCI-H716 cell line, dose-response, half-maximal inhibitory concentration (AID 1117344); assay type: functional, cell-based
[3] = target: RNA-editing ligase 1, mitochondrial (Trypanosoma brucei brucei, UniProt P86926); assay: TbREL1 ligase inhibitors, dose response, biochemical, fluorescence, Trypanosoma brucei (AID 1117295); assay type: functional
RNA-editing ligase 1, mitochondrial, sequence (P86926 whole entry): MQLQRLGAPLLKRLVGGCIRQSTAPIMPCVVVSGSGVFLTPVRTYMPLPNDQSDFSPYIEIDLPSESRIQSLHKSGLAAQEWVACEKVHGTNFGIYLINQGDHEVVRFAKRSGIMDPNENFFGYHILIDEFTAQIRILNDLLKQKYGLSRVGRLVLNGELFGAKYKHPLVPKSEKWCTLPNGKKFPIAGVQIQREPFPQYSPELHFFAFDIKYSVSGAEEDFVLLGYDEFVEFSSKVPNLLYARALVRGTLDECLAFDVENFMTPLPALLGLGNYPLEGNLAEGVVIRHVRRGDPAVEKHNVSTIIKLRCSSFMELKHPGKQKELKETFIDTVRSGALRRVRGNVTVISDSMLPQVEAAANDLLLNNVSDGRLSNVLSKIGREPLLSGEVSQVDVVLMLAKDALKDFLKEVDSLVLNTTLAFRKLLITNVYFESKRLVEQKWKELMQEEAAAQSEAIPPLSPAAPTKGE

[4] = A549 cell cytotoxicity, dose response, cytotoxicity control, 24 h, CellTiter-Glo luminescence, cherry-picks (AID 1053115); assay type: functional, cell-based; details: A549, 24 h
[5] = M. tuberculosis growth inhibition, HTS (AID 449762); assay type: functional
[6] = target: Mitogen-activated protein kinase 10 (Homo sapiens, UniProt P53779); assay: Dose response biochemical screening assay for inhibitors of c-Jun N-Terminal Kinase 3 (JNK3). [Related pubchem assays: 746 ]
Mitogen-activated protein kinase 10, sequence (P53779 whole entry): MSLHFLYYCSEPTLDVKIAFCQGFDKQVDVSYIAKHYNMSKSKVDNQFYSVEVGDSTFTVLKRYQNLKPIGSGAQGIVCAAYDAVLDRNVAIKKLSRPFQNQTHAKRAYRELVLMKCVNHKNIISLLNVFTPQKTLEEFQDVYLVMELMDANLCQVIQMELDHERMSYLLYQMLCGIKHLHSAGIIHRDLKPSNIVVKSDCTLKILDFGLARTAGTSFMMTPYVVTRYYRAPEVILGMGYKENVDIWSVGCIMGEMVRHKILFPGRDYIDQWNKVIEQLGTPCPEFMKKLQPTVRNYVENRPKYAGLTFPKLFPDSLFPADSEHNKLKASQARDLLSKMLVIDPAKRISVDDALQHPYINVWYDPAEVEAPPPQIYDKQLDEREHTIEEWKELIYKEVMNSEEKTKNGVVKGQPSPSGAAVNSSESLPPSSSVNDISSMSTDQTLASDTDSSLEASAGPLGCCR

[7] = Luminescence-based cell-based high throughput dose response assay to identify activators of the DAF-12 from the parasite S. stercoralis (ssDAF-12).; assay type: functional
[8] = target: T1, Oxysterols receptor LXR-beta (Homo sapiens, UniProt P55055); assay: LXR agonists, Gal4 luciferase reporter, dose response, counter-screen for ssDAF-12 agonist project, cell-based, luminescence, HEK293, S. stercoralis campaign (AID 720737); assay type: functional; details: read-out: IC50 (the source's name)
T1 sequence (P55055 whole entry): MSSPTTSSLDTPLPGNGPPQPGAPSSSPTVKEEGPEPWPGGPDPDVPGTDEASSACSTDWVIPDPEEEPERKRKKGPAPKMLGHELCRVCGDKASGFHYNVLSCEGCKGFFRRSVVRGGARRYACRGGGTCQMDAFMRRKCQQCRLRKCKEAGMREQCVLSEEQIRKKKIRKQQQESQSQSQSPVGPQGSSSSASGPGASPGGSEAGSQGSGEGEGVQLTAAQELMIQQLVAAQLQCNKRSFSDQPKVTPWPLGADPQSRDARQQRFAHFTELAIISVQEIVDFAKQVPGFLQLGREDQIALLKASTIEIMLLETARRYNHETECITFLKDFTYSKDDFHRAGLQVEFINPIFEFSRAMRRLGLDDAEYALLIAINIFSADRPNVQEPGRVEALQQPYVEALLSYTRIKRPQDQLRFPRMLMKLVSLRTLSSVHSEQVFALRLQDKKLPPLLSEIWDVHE

[9] = P. falciparum Dd2 growth inhibitors, dose response, SYBR Green, dry powder samples, set 9 (AID 1159568); assay type: functional, cell-based
[10] = Mtb BioA inhibitors by displacement, dose response, biochemical, coupled fluorescence displacement, 20-point, dry powder (AID 743357); assay type: functional

For O=C(Nc1cccc2c(=O)cc(-c3nnn[nH]3)oc12)c1ccc(OCCCCc2ccccc2)cc1, the IC50 [1] was > 40 µM (inactive) and the IC50 [2] was > 40 µM (inactive).
With O=C(O)c1ccnc(C(=O)O)c1 the IC50 [3] was > 96.6 µM (inactive).
With OC[C@@H]1Nc2ccc(-c3ccccc3)cc2[C@@H]2[C@H]1CCN2Cc1ccc(F)cc1 the AC50 [4] was > 60 µM (inactive).
For C/C(CC(=O)Nc1ccc(C)c(Cl)c1)=N\NC(=O)Cc1cnc(N)s1, the IC50 [5] was > 100 µM (active).
For Cc1cccc(/N=C/c2c(O)[nH]c3ccccc23)n1, the IC50 [6] was 41.7 µM (not active).
For Oc1[nH]ncc1/C=N/c1ccc(Oc2ccccc2)cc1, the IC50 [7] was > 67.5 µM (inactive) and the EC50 [8] was > 67.5 µM (inactive).
With O=C(Nc1ccccc1F)N1CCCCN2[C@H](CO)[C@@H](c3ccc(/C=C/c4ccccc4)cc3)[C@H]2C1 the AC50 [9] was 1.72 µM (active).
In the case of N#Cc1ccc(N2CCN(C(=O)c3ccc4c(c3)OCO4)CC2)cc1, the AC50 [10] is reported as 16.8 µM (active).
